Results from PMC12706794, “Identification and Characterization of a Small-Molecule Inhibitor of the Pseudomonas aeruginosa SOS Response” (ACS Infectious Diseases, 2025).
In brackets after ≈: the same amount, converted by molar mass.

B1: SOS-box dsDNA (AT-repeat) (dsDNA)
DNA 1: GATGCCTGCGGATACTGTATATATATACAGTATCAATTCTGGCT
DNA 2: AGCCAGAATTGATACTGTATATATATACAGTATCCGCAGGCATC

Columns and labels:
[1] = biological target: T1, RecAPa*-induced FlAsH-LexAPa CTD autoproteolysis (Pseudomonas aeruginosa, UniProt P37452); assay: FP-based RecA*-induced LexA autoproteolysis in vitro assay; format: biochemical, P. aeruginosa; settings: highest concentration tested, range 0.2 to 2 mM
T1 construct: 6His-SUMO (N, cleaved yes); made in house; host or cells: E. coli BL21(DE3)
Procedure: A custom-made library of 318 small molecules (MW < 1000 Da) has been screened at two different concentrations (25 μg/mL and 125 μg/mL, corresponding to molar concentrations of 30–170 μM and 150–850 μM, respectively) on the P. aeruginosa SOS system by a previously validated fluorescence polμarization (FP)-based RecA*-induced LexA autoproteolysis in vitro assay. , 1 μM FlAsH-LexAPa ^CTD and 1 μM preactivated RecA*Pa were incubated with the screened chemical fragments for 1 h at 37 °C before measuring FP.
Then, the FP-based LexA autoproteolysis assay was repeated on the two hits, monitoring the full kinetics of LexA cleavage over a 1 h incubation and exploring a wide range of drug concentrations (10–1000 μM).
A custom-made library of 318 chemical fragments (25 mg/mL stock solutions in DMSO), provided by P. Kavaliauskas (Weill Cornell Medicine of Cornell University) was screened in vitro for their ability to inhibit RecAPa*-mediated LexAPa autoproteolysis by a Fluorescence Polarization (FP)-based assay. , Twenty microliter reactions were set up in Nunc 384-Well Black microplates, and final reaction mixtures included 1 μM FlAsH-LexAPa ^CTD, the compounds (5% v/v DMSO in all the samples, including the controls devoid of compounds), and 1 μM RecAPa* (FP Buffer in the negative control; 30 mM Hepes, 150 mM NaCl, pH 7.1). The initial screening was performed with two dilutions of the compounds (25 and 125 μg/mL). The FP signal was measured after a 1 h incubation at 37 °C by an EnVision MultiMode Plate Reader (PerkinElmer) equipped with opportune FP filters and mirrors. To obtain LexAPa ^CTD autoproteolysis percent inhibition, FP data were scaled from 0% (corresponding to the positive control sample) to 100% (negative control).
Compounds displaying an inhibition of at least 50% at the highest concentration and a rather consistent increase in activity at the two tested concentrations were selected as the hits.
The same FP assay was carried out on serial dilutions of selected compounds to determine the dose–response relationship. To evaluate the effect of a reducing environment, 2 mM Tris(2-carboxyethyl)-phosphine (TCEP) was added to the reaction mixtures. The FP signal of FlAsH-LexAPa ^CTD alone was detected for 5 min before adding the compounds. The system was monitored for an additional 5 min in the presence of the tested compounds in order to observe potential aggregation events. Then, RecAPa* was added, and the autoproteolysis reaction was followed for 1 h at 37 °C (1 reading per minute). FlAsH-LexAPa ^CTD autoproteolysis percent inhibition was calculated as mentioned above and plotted as a function of compound concentration. Experimental data fitting was performed with GraphPad Prism 8 to obtain the absolute IC50.

[2] = tested on: P. aeruginosa PAO1; assay: Antimicrobial susceptibility testing (MIC); format: cell-based, P. aeruginosa PAO1 (ATCC 15692); settings: for MIC: Pseudomonas aeruginosa, PAO1
Procedure: The MIC of compound A12 and antibiotics was determined by using the Clinical Laboratory Standard Institute (CLSI) recommendations with minor modifications. […] Microplates were incubated in a humidified incubator for 18 h at 37 °C, and the bacterial growth was quantified by OD600. According to CLSI, MICs are defined as the lowest concentrations of antimicrobial agents that prevent visible growth.

[3] = tested on: P. aeruginosa PAO1 on THP-1-derived macrophages; assay: P. aeruginosa PAO1 colonization of THP-1-derived macrophages; format: cell-based; settings: single agent: ciprofloxacin 0.5 μg/mL or A12 100 μg/mL; 3 h infection
Procedure: THP-1-derived macrophages were generated from THP-1 monocytes as previously described, with minor modifications. , Briefly, THP-1 monocytes were washed three times with antibiotic-free RPMI 1640 medium and resuspended in complete antibiotic-free RPMI 1640 supplemented with 300 nM phorbol 12-myristate 13-acetate (PMA). Cells were incubated for 24 h, followed by a 48 h rest period in PMA-free RPMI 1640 prior to use in subsequent experiments. […] PMA-differentiated THP-1-derived macrophages were similarly trypsinized and seeded into 24-well plates at 5 × 10^5 cells/well in complete, antibiotic-free RPMI supplemented with FBS. Cells were incubated overnight to allow for attachment. Immediately prior to infection, the medium was aspirated, and cells were washed three times with Dulbecco’s phosphate-buffered saline. […] Infection was synchronized by centrifuging plates at 1000g for 1 min. […] Following the infection period, the medium was aspirated, and cells were washed three times with DPBS to remove unattached bacteria and residual test compounds. […] In both cases, the resulting lysates were serially diluted in DPBS and plated on tryptic soy agar plates. Plates were incubated at 37 °C for 24 h, after which colonies were enumerated. Bacterial burden was expressed as the CFU per well.

[4] = biological target: LexAPa S125A (uncleavable mutant) (Pseudomonas aeruginosa ATCC 27853, UniProt P37452 1-204, S125A); assay: EMSA; no A12, 10% DMSO; 8 uM LexA, 1 uM DNA; settings: protein: recombinant; chain copies: 2; blunt
[5] = A12 (32 μg/mL) (+), in combination

Row | Molecule | MIC on P. aeruginosa PAO1 [2, 5] [µg/mL] | MIC ([2]; A12 (32 μg/mL) (−)) [µg/mL] | other results
1 | O=C(O)CCNc1ccccc1CCc1ccccc1NCCC(=O)O [BG-191, 3,3′-((ethane-1,2-diylbis(2,1-phenylene))bis(azanediyl))dipropionic acid] | – | – | LexAPa autocleavage percent inhibition of A12 derivatives [1]: 20%
2 | CC(CC(=O)O)Nc1ccccc1CCc1ccccc1NC(C)CC(=O)O (stereo not shown) [BG-194, 3,3′-((ethane-1,2-diylbis(2,1-phenylene))bis(azanediyl))dibutyric acid] | – | – | LexAPa autocleavage percent inhibition of A12 derivatives [1]: did not display any inhibitory activity
3 | CN(C)[C@@H]1C(O)=C(C(N)=O)C(=O)[C@@]2(O)C(O)=C3C(=O)c4c(O)cccc4[C@@](C)(O)[C@H]3C[C@@H]12 [Tetracycline] | 4 | 4 (≈ 9 µM) | –
4 | COc1c(N2C[C@@H]3CCCN[C@@H]3C2)c(F)cc2c(=O)c(C(=O)O)cn(C3CC3)c12 [Moxifloxacin] | – | 0.0312 (≈ 0.0777 µM) | –
5 | Gentamycin | 2 | – | MIC on P. aeruginosa PAO1 ([2]; A12 (32 μg/mL) (−)): 2 µg/mL
6 | CO/N=C(\C(=O)N[C@@H]1C(=O)N2C(C(=O)O)=C(CSc3nc(=O)c(=O)[nH]n3C)CS[C@H]12)c1csc(N)n1 [Ceftriaxone] | 8 | 8 (≈ 14.4 µM) | –
7 | O=C(O)c1cn(C2CC2)c2cc(N3CCNCC3)c(F)cc2c1=O [Ciprofloxacin, reference compound] | – | – | Total (adherent + intracellular) burden of PAO1 on THP-1-derived macrophages [3]: diminished
8 | C[C@H]1COc2c(N3CCN(C)CC3)c(F)cc3c(=O)c(C(=O)O)cn1c23 [Levofloxacin] | 0.125 | 0.0625 (≈ 0.173 µM) | –
9 | B1 | – | – | binding result [4]: binds
